Laboratory results from patent publication US9902736B2, “1-oxo/acylation-14-acylated oridonin derivative, preparation method therefor and application thereof” (HANGZHOU BENSHENG PHARMACEUTICAL CO., LTD., priority 2012, dated 2018).
Converted amounts (≈) assume the structure as drawn.

The molecules below were run on RPMI 8226 (assay: Multiple myeloma cell growth inhibition, MTT, 72 h). Details: Homo sapiens.
Format: cell-based
Protocol: Multiple myeloma cell lines: RPMI8226 (multiple myeloma), purchased from Fuxiang Bio-tech Co. Ltd., Shanghai, China.
(§1) 6000 well-growing cells were obtained and inoculated into wells of a 96-well cell culture plate. […] On the next day, the 1-oxo/acylated-14-acylated oridonin derivatives of different concentrations were added and mixed uniformly. The plate was placed in a carbon dioxide cell incubator (5% CO2) at 37° C. and incubated for 72 hours. Then the viable cell concentration was determined by MTT method.

Row | IC50 | IC90 | SMILES
1 | 0.85 µg/mL (≈ 1.43 µM) | 2.92 µg/mL (≈ 4.93 µM) | C=C1C(=O)[C@]23[C@H](OC(=O)C4CCC(NC(=O)c5ccccn5)CC4)[C@H]1CC[C@H]2[C@@]12CO[C@@]3(O)[C@@H](O)[C@@H]1C(C)(C)CCC2=O (stereo partly shown) [BS-OR-083]

What follows are molecules tested on NB4 (assay: Leukemia cell growth inhibition, MTT, 72 h). Details: Homo sapiens, NB-4; 72 h, MTT.
Format: cell-based, human
Description: (§2) Leukemia cell lines: leukemia cell lines: K562/adr (drug-resistant, chronic myeloid leukemia, CML), NB4 (acute promyelocytic leukemia, AML), Kasumi-1 (acute myeloid leukemia M2 type, AML-M2), Jurkat (acute lymphoblastic leukemia, ALL), all of which were donated by Cancer Research Institute of Zhejiang University, China; and H9 (acute lymphoblastic leukemia, ALL), which was purchased from China Center for Type Culture Collection.
as §1, with “6000 well-growing leukemia cells were” for “6000 well-growing cells were”, “C. and was incubated for” for “C. and incubated for”

Row | IC50 | IC90 | SMILES
2 | 0.31 µg/mL (≈ 0.523 µM) | 0.99 µg/mL (≈ 1.67 µM) | C=C1C(=O)[C@]23[C@H](OC(=O)C4CCC(NC(=O)c5ccccn5)CC4)[C@H]1CC[C@H]2[C@@]12CO[C@@]3(O)[C@@H](O)[C@@H]1C(C)(C)CCC2=O (stereo partly shown) [BS-OR-083]

The molecules below were run on H9 (assay: Leukemia cell growth inhibition, MTT, 72 h). Details: Homo sapiens, H9; 72 h, MTT.
Format: cell-based, human
Description: as §2
as §1, with “6000 well-growing leukemia cells were” for “6000 well-growing cells were”, “C. and was incubated for” for “C. and incubated for”

Row | IC50 | IC90 | SMILES
3 | 0.56 µg/mL (≈ 0.945 µM) | 1.54 µg/mL (≈ 2.6 µM) | C=C1C(=O)[C@]23[C@H](OC(=O)C4CCC(NC(=O)c5ccccn5)CC4)[C@H]1CC[C@H]2[C@@]12CO[C@@]3(O)[C@@H](O)[C@@H]1C(C)(C)CCC2=O (stereo partly shown) [BS-OR-083]

What follows are molecules tested on Jurkat (assay: Leukemia cell growth inhibition, MTT, 72 h). Details: Homo sapiens, Jurkat; 72 h, MTT.
Format: cell-based, human
Description: as §2
as §1, with “6000 well-growing leukemia cells were” for “6000 well-growing cells were”, “C. and was incubated for” for “C. and incubated for”

Row | IC50 | IC90 | SMILES
4 | 0.89 µg/mL (≈ 1.5 µM) | 4.13 µg/mL (≈ 6.97 µM) | C=C1C(=O)[C@]23[C@H](OC(=O)C4CCC(NC(=O)c5ccccn5)CC4)[C@H]1CC[C@H]2[C@@]12CO[C@@]3(O)[C@@H](O)[C@@H]1C(C)(C)CCC2=O (stereo partly shown) [BS-OR-083]

Each molecule was assayed on MGC-803 (assay: Solid tumor cell growth inhibition, MTT, 72 h). Details: Homo sapiens, MGC-803; 72 h, MTT.
Format: cell-based, human
Protocol: (§3) 6000 well-growing human solid tumor cells were obtained and inoculated into wells of a 96-well cell culture plate. The culture medium was DMEM High Glucose cell culture medium containing 10% fetal bovine serum. The plate was placed in a carbon dioxide cell incubator (5% CO2) at 37° C. and incubated for 24 hours. After added with 1-oxo/acylated-14-acylated oridonin derivatives of different concentration and mixed uniformly, the plate was placed in a carbon dioxide cell incubator (5% CO2) at 37° C. and incubated for 72 hours. Then the viable cell concentration was determined by MTT method.

Row | IC50 | IC90 | SMILES
5 | 1.26 µg/mL (≈ 2.13 µM) | 5.57 µg/mL (≈ 9.4 µM) | C=C1C(=O)[C@]23[C@H](OC(=O)C4CCC(NC(=O)c5ccccn5)CC4)[C@H]1CC[C@H]2[C@@]12CO[C@@]3(O)[C@@H](O)[C@@H]1C(C)(C)CCC2=O (stereo partly shown) [BS-OR-083]

What follows are molecules tested on Hep-2 (assay: Solid tumor cell growth inhibition, MTT, 72 h). Details: Homo sapiens, HEp-2; 72 h, MTT.
Format: cell-based, human
Protocol: as §3

Row | IC50 | IC90 | SMILES
6 | 3.13 µg/mL (≈ 5.28 µM) | 15.5 µg/mL (≈ 26.2 µM) | C=C1C(=O)[C@]23[C@H](OC(=O)C4CCC(NC(=O)c5ccccn5)CC4)[C@H]1CC[C@H]2[C@@]12CO[C@@]3(O)[C@@H](O)[C@@H]1C(C)(C)CCC2=O (stereo partly shown) [BS-OR-083]

What follows are molecules tested on Hela (assay: Solid tumor cell growth inhibition, MTT, 72 h). Details: Homo sapiens, HeLa; 72 h, MTT.
Format: cell-based, human
Protocol: as §3

Row | IC50 | IC90 | SMILES
7 | 1.92 µg/mL (≈ 3.24 µM) | 4.95 µg/mL (≈ 8.35 µM) | C=C1C(=O)[C@]23[C@H](OC(=O)C4CCC(NC(=O)c5ccccn5)CC4)[C@H]1CC[C@H]2[C@@]12CO[C@@]3(O)[C@@H](O)[C@@H]1C(C)(C)CCC2=O (stereo partly shown) [BS-OR-083]

What follows are molecules tested on CNE (assay: Solid tumor cell growth inhibition, MTT, 72 h). Details: Homo sapiens, CNE; 72 h, MTT.
Format: cell-based, human
Protocol: as §3

Row | IC50 | IC90 | SMILES
8 | 1.52 µg/mL (≈ 2.56 µM) | 4.42 µg/mL (≈ 7.46 µM) | C=C1C(=O)[C@]23[C@H](OC(=O)C4CCC(NC(=O)c5ccccn5)CC4)[C@H]1CC[C@H]2[C@@]12CO[C@@]3(O)[C@@H](O)[C@@H]1C(C)(C)CCC2=O (stereo partly shown) [BS-OR-083]

These molecules were tested on MG-63 (assay: Solid tumor cell growth inhibition, MTT, 72 h). Details: Homo sapiens.
Format: cell-based
Protocol: as §3

Row | IC50 | IC90 | SMILES
9 | 0.76 µg/mL (≈ 1.28 µM) | 1.7 µg/mL (≈ 2.87 µM) | C=C1C(=O)[C@]23[C@H](OC(=O)C4CCC(NC(=O)c5ccccn5)CC4)[C@H]1CC[C@H]2[C@@]12CO[C@@]3(O)[C@@H](O)[C@@H]1C(C)(C)CCC2=O (stereo partly shown) [BS-OR-083]

Each molecule was assayed on PANC-1 (assay: Solid tumor cell growth inhibition, MTT, 72 h). Details: Homo sapiens.
Format: cell-based
Protocol: as §3

Row | IC50 | IC90 | SMILES
10 | 3.14 µg/mL (≈ 5.3 µM) | 9.16 µg/mL (≈ 15.5 µM) | C=C1C(=O)[C@]23[C@H](OC(=O)C4CCC(NC(=O)c5ccccn5)CC4)[C@H]1CC[C@H]2[C@@]12CO[C@@]3(O)[C@@H](O)[C@@H]1C(C)(C)CCC2=O (stereo partly shown) [BS-OR-083]

The molecules below were run on U87-MG (assay: Solid tumor cell growth inhibition, MTT, 72 h). Details: Homo sapiens, U-87 MG.
Format: cell-based
Protocol: as §3

Row | IC50 | IC90 | SMILES
11 | 1.29 µg/mL (≈ 2.18 µM) | 4.61 µg/mL (≈ 7.78 µM) | C=C1C(=O)[C@]23[C@H](OC(=O)C4CCC(NC(=O)c5ccccn5)CC4)[C@H]1CC[C@H]2[C@@]12CO[C@@]3(O)[C@@H](O)[C@@H]1C(C)(C)CCC2=O (stereo partly shown) [BS-OR-083]

These molecules were tested on PC-3 (assay: Solid tumor cell growth inhibition, MTT, 72 h). Details: Homo sapiens.
Format: cell-based
Protocol: as §3

Row | IC50 | IC90 | SMILES
12 | 3.16 µg/mL (≈ 5.33 µM) | 6.8 µg/mL (≈ 11.5 µM) | C=C1C(=O)[C@]23[C@H](OC(=O)C4CCC(NC(=O)c5ccccn5)CC4)[C@H]1CC[C@H]2[C@@]12CO[C@@]3(O)[C@@H](O)[C@@H]1C(C)(C)CCC2=O (stereo partly shown) [BS-OR-083]

These molecules were tested on Hep G2 (assay: Solid tumor cell growth inhibition, MTT, 72 h). Details: Homo sapiens, HepG2.
Format: cell-based
Protocol: as §3

Row | IC50 | IC90 | SMILES
13 | 2.83 µg/mL (≈ 4.77 µM) | 11.9 µg/mL (≈ 20.1 µM) | C=C1C(=O)[C@]23[C@H](OC(=O)C4CCC(NC(=O)c5ccccn5)CC4)[C@H]1CC[C@H]2[C@@]12CO[C@@]3(O)[C@@H](O)[C@@H]1C(C)(C)CCC2=O (stereo partly shown) [BS-OR-083]

What follows are molecules tested on CaEs-17 (assay: Solid tumor cell growth inhibition, MTT, 72 h). Details: Homo sapiens, CaEs17.
Format: cell-based
Protocol: as §3

Row | IC50 | IC90 | SMILES
14 | 1.71 µg/mL (≈ 2.89 µM) | 10.2 µg/mL (≈ 17.2 µM) | C=C1C(=O)[C@]23[C@H](OC(=O)C4CCC(NC(=O)c5ccccn5)CC4)[C@H]1CC[C@H]2[C@@]12CO[C@@]3(O)[C@@H](O)[C@@H]1C(C)(C)CCC2=O (stereo partly shown) [BS-OR-083]

The molecules below were run on RKO (assay: Solid tumor cell growth inhibition, MTT, 72 h). Details: Homo sapiens.
Format: cell-based
Protocol: as §3

Row | IC50 | IC90 | SMILES
15 | 0.68 µg/mL (≈ 1.15 µM) | 1.68 µg/mL (≈ 2.83 µM) | C=C1C(=O)[C@]23[C@H](OC(=O)C4CCC(NC(=O)c5ccccn5)CC4)[C@H]1CC[C@H]2[C@@]12CO[C@@]3(O)[C@@H](O)[C@@H]1C(C)(C)CCC2=O (stereo partly shown) [BS-OR-083]

These molecules were tested on A549 (assay: Solid tumor cell growth inhibition, MTT, 72 h). Details: Homo sapiens.
Format: cell-based
Protocol: as §3

Row | IC50 | IC90 | SMILES
16 | 5.07 µg/mL (≈ 8.55 µM) | 11.3 µg/mL (≈ 19.1 µM) | C=C1C(=O)[C@]23[C@H](OC(=O)C4CCC(NC(=O)c5ccccn5)CC4)[C@H]1CC[C@H]2[C@@]12CO[C@@]3(O)[C@@H](O)[C@@H]1C(C)(C)CCC2=O (stereo partly shown) [BS-OR-083]

These molecules were tested on SK-OV-3 (assay: Solid tumor cell growth inhibition, MTT, 72 h). Details: Homo sapiens, SK-OV-3; 72 h, MTT; read-out: IC50 SK-OV-3.
Format: cell-based
Protocol: as §3

Row | IC50 | SMILES
17 | 3.16 µg/mL (≈ 5.33 µM) | C=C1C(=O)[C@]23[C@H](OC(=O)C4CCC(NC(=O)c5ccccn5)CC4)[C@H]1CC[C@H]2[C@@]12CO[C@@]3(O)[C@@H](O)[C@@H]1C(C)(C)CCC2=O (stereo partly shown) [BS-OR-083]

Same assay, conditions: Homo sapiens, SK-OV-3; 72 h, MTT; read-out: IC90 SK-OV-3

Row | IC90 | SMILES
18 | 6.8 µg/mL (≈ 11.5 µM) | C=C1C(=O)[C@]23[C@H](OC(=O)C4CCC(NC(=O)c5ccccn5)CC4)[C@H]1CC[C@H]2[C@@]12CO[C@@]3(O)[C@@H](O)[C@@H]1C(C)(C)CCC2=O (stereo partly shown) [BS-OR-083]

The molecules below were run on Becap-37 (assay: Solid tumor cell growth inhibition, MTT, 72 h). Details: Homo sapiens.
Format: cell-based
Protocol: as §3

Row | IC50 | IC90 | SMILES
19 | 2.21 µg/mL (≈ 3.73 µM) | 6.5 µg/mL (≈ 11 µM) | C=C1C(=O)[C@]23[C@H](OC(=O)C4CCC(NC(=O)c5ccccn5)CC4)[C@H]1CC[C@H]2[C@@]12CO[C@@]3(O)[C@@H](O)[C@@H]1C(C)(C)CCC2=O (stereo partly shown) [BS-OR-083]

What follows are molecules tested on K562/ADR (assay: Leukemia cell growth inhibition, MTT, 72 h). Details: Homo sapiens.
Format: cell-based
Description: as §2
as §1, with “6000 well-growing leukemia cells were” for “6000 well-growing cells were”, “C. and was incubated for” for “C. and incubated for”

Row | IC50 | IC90 | SMILES
20 | 0.58 µg/mL (≈ 0.979 µM) | 1.94 µg/mL (≈ 3.27 µM) | C=C1C(=O)[C@]23[C@H](OC(=O)C4CCC(NC(=O)c5ccccn5)CC4)[C@H]1CC[C@H]2[C@@]12CO[C@@]3(O)[C@@H](O)[C@@H]1C(C)(C)CCC2=O (stereo partly shown) [BS-OR-083]

Each molecule was assayed on Kasumi-1 (assay: Leukemia cell growth inhibition, MTT, 72 h). Details: Homo sapiens.
Format: cell-based
Description: as §2
as §1, with “6000 well-growing leukemia cells were” for “6000 well-growing cells were”, “C. and was incubated for” for “C. and incubated for”

Row | IC50 | IC90 | SMILES
21 | 1.09 µg/mL (≈ 1.84 µM) | 2.59 µg/mL (≈ 4.37 µM) | C=C1C(=O)[C@]23[C@H](OC(=O)C4CCC(NC(=O)c5ccccn5)CC4)[C@H]1CC[C@H]2[C@@]12CO[C@@]3(O)[C@@H](O)[C@@H]1C(C)(C)CCC2=O (stereo partly shown) [BS-OR-083]
